The results in this text go back to patent US9290482B2, “Amino-substituted imidazopyridazines” (BAYER PHARMA AKTIENGESELLSCHAFT, priority 2012, dated 2016).

pIC50: −log10 of the molar value.

In the assay the target is human full-length MKNK1 (Homo sapiens, UniProt Q9BUB5, T344D). Description: MKNK1 kinase high ATP assay (TR-FRET). It is filed as biochemical. Particulars: 2 mM ATP, 15 min preincubation with MKNK1, TR-FRET. The method, then: MKNK1 Kinase High ATP Assay
MKNK1-inhibitory activity at high ATP of compounds of the present invention after their preincubation with MKNK1 was quantified employing the TR-FRET-based MKNK1 high ATP assay as described in the following paragraphs.
A recombinant fusion protein of Glutathione-S-Transferase (GST, N-terminally) and human full-length MKNK1 (amino acids 1-424 and T344D of accession number BAA 19885.1), expressed in insect cells using baculovirus expression system and purified via glutathione sepharose affinity chromatography, was purchased from Carna Biosciences (product no 02-145) and used as enzyme. As substrate for the kinase reaction the biotinylated peptide biotin-Ahx-IKKRKLTRRKSLKG (C-terminus in amide form) was used, which can be purchased e.g. from the company Biosyntan (Berlin-Buch, Germany).
For the assay 50 nl nL of a 100fold concentrated solution of the test compound in DMSO was pipetted into a black low volume 384well microtiter plate (Greiner Bio-One, Frickenhausen, Germany), 2 μL of a solution of MKNK1 in aqueous assay buffer [50 mM HEPES pH 7.5, 5 mM magnesium chloride, 1.0 mM dithiothreitol, 0.005% (v/v) Nonidet-P40 (Sigma)] was added and the mixture was incubated for 15 min at 22° C. to allow pre-binding of the test compounds to the enzyme before the start of the kinase reaction. Then the kinase reaction was started by the addition of 3 μL of a solution of adenosine-tri-phosphate (ATP, 3.3 mM=>final conc. in the 5 μL assay volume is 2 mM) and substrate (0.1 μM=>final conc. in the 5 μL assay volume is 0.06 μM) in assay buffer and the resulting mixture was incubated for a reaction time of 30 min at 22° C. The concentration of MKNK1 was adjusted depending of the activity of the enzyme lot and was chosen appropriate to have the assay in the linear range, typical concentrations were in the range of 0.003 μg/mL. The reaction was stopped by the addition of 5 μL of a solution of TR-FRET detection reagents (5 nM streptavidine-XL665 [Cisbio Bioassays, Codolet, France] and 1 nM anti-ribosomal protein S6 (pSer236)-antibody from Invitrogen [#44921G] and 1 nM LANCE EU-W1024 labeled ProteinG [Perkin-Elmer, product no. AD0071]) in an aqueous EDTA-solution (100 mM EDTA, 0.1% (w/v) bovine serum albumin in 50 mM HEPES pH 7.5).
The resulting mixture was incubated for 1 h at 22° C. to allow the formation of complex between the phosphorylated biotinylated peptide and the detection reagents. Subsequently the amount of phosphorylated substrate was evaluated by measurement of the resonance energy transfer from the Eu-chelate to the streptavidine-XL. Therefore, the fluorescence emissions at 620 nm and 665 nm after excitation at 350 nm were measured in a TR-FRET reader, e.g. a Rubystar (BMG Labtechnologies, Offenburg, Germany) or a Viewlux (Perkin-Elmer). The ratio of the emissions at 665 nm and at […] was taken as the measure for the amount of phosphorylated substrate. The data were normalised (enzyme reaction without inhibitor=0% inhibition, all other assay components but no enzyme=100% inhibition).
A general note: In TR-FRET formats the signal depends on donor and acceptor labels being close together.
The term pIC50 denotes −log10 of the IC50, conventionally taken in molar units. Consider `COc1nccc2oc(-c3cnc4ccc(O[C@@H](CNC5CC5)c5ccc(F)cc5)nn34)cc12` (stereo in doubt) [Example 7, N-[2-(4-Fluorophenyl)-2-{[3-(4-methoxyfuro[3,2-c]pyridin-2-yl)imidazo[1,2-b]-pyridazin-6-yl]oxy}ethyl]cyclopropanamine], for which the pIC50 was 6.41.

The compound `COc1nccc2oc(-c3cnc4ccc(OC[C@H]5CNCCO5)nn34)cc12` [Example 1, 3-(4-Methoxyfuro[3,2-c]pyridin-2-yl)-6-[(2R)-morpholin-2-ylmethoxy]imidazo-[1,2-b]pyridazine] gave a pIC50 of 7.96.

Compound `COc1nccc2oc(-c3cnc4ccc(OC[C@@H]5CCCCN5)nn34)cc12` [Example 8, 3-(4-Methoxyfuro[3,2-c]pyridin-2-yl)-6-[(2S)-piperidin-2-ylmethoxy]imidazo-[1,2-b]pyridazine] showed a pIC50 of 7.32. This pIC50 lies 0.64 log units lower than the previous one.

`CN[C@H](C)COc1ccc2ncc(-c3cc4c(OC)nccc4o3)n2n1` (stereo in doubt) [Example 3, 1-{[3-(4-Methoxyfuro[3,2-c]pyridin-2-yl)imidazo[1,2-b]pyridazin-6-yl]oxy}-N-methylpropan-2-amine] showed a pIC50 of 7.49.

Compound `c1cc2oc(-c3cnc4ccc(OC[C@H]5CNCCO5)nn34)cc2cn1` [Example 4, 3-(Furo[3,2-c]pyridin-2-yl)-6-[(2R)-morpholin-2-ylmethoxy]imidazo[1,2-b]-pyridazine] gave a negative logarithm of the IC50 (pIC50) of 7.14.

For the compound `c1cnc2cc(-c3cnc4ccc(OC[C@H]5CNCCO5)nn34)oc2c1` [Example 5, 3-(Furo[3,2-b]pyridin-2-yl)-6-[(2R)-morpholin-2-ylmethoxy]imidazo[1,2-b]-pyridazine], the pIC50 is 7.07.

Compound `c1cc2oc(-c3cnc4ccc(OCC[C@@H]5CCCN5)nn34)cc2cn1` [Example 6, 3-(Furo[3,2-c]pyridin-2-yl)-6-{2-[(2S)-pyrrolidin-2-yl]ethoxy}imidazo[1,2-b]-pyridazine] had a pIC50 of 6.88.

With `COc1nccc2oc(-c3cnc4ccc(OCC5CNC5)nn34)cc12` [Example 2, 6-(Azetidin-3-ylmethoxy)-3-(4-methoxyfuro[3,2-c]pyridin-2-yl)imidazo[1,2-b]-pyridazine], the negative logarithm of the IC50 (pIC50) was 7.51.
